# Test results reported in patent US8278338B2 (priority 2004, dated 2012).
# Like-named read-outs stand apart in the source and are kept apart here.
# Legend:
# [1] = target: 5-HT reuptake (Rattus norvegicus, UniProt P31652); experiment: biochemical; conditions: for inhibition at 10 µM: read-out: Inhibition of 5-HT reuptake (% inhibition at 10 μmol./l), 10 μmol./l
# Description: In order to be able to carry out these in vitro studies, synaptosomes were freshly isolated from areas of rat brain. […] For NA reuptake, these vesicular particles were isolated from the hypothalamus of male rat brains, and for 5HT reuptake, they were isolated from the medulla+pons region.
# The IC50 values were obtained with the aid of the “Figure P” computer program (Version 6.0, Biosoft, Cambridge, England). […] The “Ligand” computer program (Version 4, Biosoft, England) was used to show KD values.
# [2] = target: T1, NA reuptake (Rattus norvegicus, UniProt Q63380); experiment: Inhibition of NA reuptake in rat brain synaptosomes (hypothalamus, P2 fraction); type: biochemical; conditions: for inhibition at 10 µM: 10 μmol./l
# T1 construct: isolated from the hypothalamus of male rat brains; from tissue; host or cells: rat brain synaptosomes (P2 fraction), hypothalamus of male rats
# T1 sequence (Q63380 1-617): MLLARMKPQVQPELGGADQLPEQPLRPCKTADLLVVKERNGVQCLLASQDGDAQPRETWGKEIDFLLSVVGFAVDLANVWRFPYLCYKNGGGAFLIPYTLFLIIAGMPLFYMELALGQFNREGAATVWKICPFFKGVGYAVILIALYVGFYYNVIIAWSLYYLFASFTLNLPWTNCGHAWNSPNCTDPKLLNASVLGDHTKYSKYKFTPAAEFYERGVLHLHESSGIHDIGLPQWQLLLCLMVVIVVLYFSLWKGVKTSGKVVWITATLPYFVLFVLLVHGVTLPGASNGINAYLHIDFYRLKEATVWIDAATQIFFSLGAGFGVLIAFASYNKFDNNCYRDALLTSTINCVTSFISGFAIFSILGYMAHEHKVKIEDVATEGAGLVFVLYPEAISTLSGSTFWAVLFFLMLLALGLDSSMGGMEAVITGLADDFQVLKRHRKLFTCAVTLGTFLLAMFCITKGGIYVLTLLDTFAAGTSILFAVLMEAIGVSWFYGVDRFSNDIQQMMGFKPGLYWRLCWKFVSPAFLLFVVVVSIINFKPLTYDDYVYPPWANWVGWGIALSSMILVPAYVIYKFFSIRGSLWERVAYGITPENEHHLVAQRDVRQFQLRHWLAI
# Protocol: In order to be able to carry out these in vitro studies, synaptosomes were freshly isolated from areas of rat brain. A so-called “P2” fraction was used in each case, which was prepared exactly according to the procedure of Gray, E. G. and Whittaker, V. P. (1962, J. Anat. […], 79-88). For NA reuptake, these vesicular particles were isolated from the hypothalamus of male rat brains, and for 5HT reuptake, they were isolated from the medulla+pons region.
# IC50 values were obtained thereby which can be converted into inhibitor constants (Ki) according to the “Cheng-Prusoff equation” (Cheng, Y. C. and Prusoff, W. H., 1973, Biochem. Pharmacol. 22, 3099-3108). The IC50 values were obtained with the aid of the “Figure P” computer program (Version 6.0, Biosoft, Cambridge, England). Km values were calculated according to Lineweaver, H. and Burk, D. (1934, J. Am. Chem. Soc. 56, 658-666). The “Ligand” computer program (Version 4, Biosoft, England) was used to show KD values.
# [3] = target: T2, human μ-opiate receptor (Homo sapiens, UniProt P35372); experiment: Affinity for the human μ-opiate receptor, [3H]-naloxone displacement (SPA) on CHO-K1 receptor membrane preparation; type: binding; conditions: for inhibition at 1 µM: 1.5 h, read-out: μ-Opioid receptor affinity (% inhibition at 1 μmol./l), 1 μmol./l test substance; for inhibition at 1 µM / μ-Opioid receptor affinity (% inhibition at 1 μmol./l): inhibition of specific [3H]-naloxone binding; for μ-Opioid receptor affinity (% inhibition at 1 μmol./l): 1 μmol./l test substance
# T2 construct: purchased Perkin Elmer, Zaventem, Belgium RB-HOM; host or cells: CHO-K1 cells
# T2 sequence (P35372 whole entry): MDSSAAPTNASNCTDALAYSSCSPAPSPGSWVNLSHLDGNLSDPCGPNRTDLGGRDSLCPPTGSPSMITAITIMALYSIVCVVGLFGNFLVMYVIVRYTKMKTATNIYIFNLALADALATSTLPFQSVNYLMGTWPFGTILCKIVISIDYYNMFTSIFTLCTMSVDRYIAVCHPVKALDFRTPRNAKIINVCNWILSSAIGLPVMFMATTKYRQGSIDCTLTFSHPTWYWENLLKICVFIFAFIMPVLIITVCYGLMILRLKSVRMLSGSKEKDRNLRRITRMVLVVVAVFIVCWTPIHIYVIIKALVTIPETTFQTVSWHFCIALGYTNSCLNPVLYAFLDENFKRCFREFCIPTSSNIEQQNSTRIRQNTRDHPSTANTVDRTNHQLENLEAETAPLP
# Protocol: The receptor affinity for the human μ-opiate receptor was determined in a homogeneous batch on microtitre plates. To that end, serial dilutions of the substances to be tested were incubated for 90 minutes at room temperature with a receptor membrane preparation (15-40 μg of protein/250 μl of incubation batch) of CHO-K1 cells, which express the human μ-opiate receptor (RB-HOM receptor membrane preparation from Perkin Elmer, Zaventem, Belgium), in the presence of 1 nmol./l of the radioactive ligand [^3H]-naloxone (NET719, Perkin Elmer, Zaventem, Belgium) and 1 mg of WGA-SPA beads (wheatgerm agglutinin SPA beads from Amersham/Pharmacia, Freiburg, Germany) in a total volume of 250 μl. The incubation buffer used was 50 mmol./l of Tris-HCl supplemented with 50 μM MgCl2 and 0.05% bovine serum albumin. In order to determine non-specific binding, 100 μmol./l of naloxone were additionally added. When the ninety-minute incubation time was complete, the microtitre plates were centrifuged off for 20 minutes at 1000 g and the radioactivity was measured in a β-counter (Microbeta-Trilux, PerkinElmer, Freiburg, Germany). The percentage displacement of the radioactive ligand from its binding to the human μ-opiate receptor at a concentration of the test substances of 1 μmol./l was determined and stated as the percentage inhibition of specific binding. […] Ki values for the test substances were obtained by conversion by means of the Cheng-Prusoff equation (Cheng and Prusoff 1973).
# [4] = test system: rat; experiment: Formalin test in the rat (phase 2, chronic pain component); type: in vivo
# Protocol: The formalin test (Dubuisson, D. and Dennis, S. G., 1977, Pain, 4, 161-174) represents a model for acute and chronic pain. By means of a single formalin injection into the dorsal side of a rear paw, a biphase nociceptive reaction was induced in freely mobile test animals; the reaction was assessed by observing three behaviour patterns which are clearly distinguishable from one another. The reaction is two-phase: phase 1=immediate reaction (duration up to 10 minutes; shaking of the paw, licking), phase 2=late reaction (after a rest phase; likewise shaking of the paw, licking; duration up to 60 minutes). The first phase reflects a direct stimulation of the peripheral nocisensors with a high spinal nociceptive input or glutamate release (acute pain phase); the second phase reflects a spinal and peripheral hypersensitisation (chronic pain phase). In the studies presented here, the chronic pain component (phase 2) was evaluated.
# Formalin was administered subcutaneously in a volume of 50 μl and a concentration of 5% into the dorsal side of the right rear paw of each animal. The specific behavioural changes, such as lifting and shaking of the paw, weight shifting of the animal and biting and licking reactions, were observed and recorded over an observation period of from 21 to 27 minutes after the formalin injection. The various behaviours were combined to give the so-called pain rate (PR) which, based on 3-minute intervals, represents the calculation of a mean nociceptive reaction. The PR was calculated on the basis of a numerical weighting (=in each case factor 1, 2, 3) of the observed behaviours (corresponding to behaviour score 1, 2, 3) and was calculated using the following formula:
# The size of the group was 10 animals (n=10).
# On the basis of the PR calculations, the activity of the substance was determined in percent as the change relative to a control. The ED50 was determined by means of regression analysis.
# [5] = Cheng-Prusoff from IC50, [3H]-naloxone 1 nmol./l, read-out: μ-Opioid receptor affinity, Ki
# [6] = rat synaptosomes, Cheng-Prusoff
# 5-HT reuptake, sequence (P31652 whole entry): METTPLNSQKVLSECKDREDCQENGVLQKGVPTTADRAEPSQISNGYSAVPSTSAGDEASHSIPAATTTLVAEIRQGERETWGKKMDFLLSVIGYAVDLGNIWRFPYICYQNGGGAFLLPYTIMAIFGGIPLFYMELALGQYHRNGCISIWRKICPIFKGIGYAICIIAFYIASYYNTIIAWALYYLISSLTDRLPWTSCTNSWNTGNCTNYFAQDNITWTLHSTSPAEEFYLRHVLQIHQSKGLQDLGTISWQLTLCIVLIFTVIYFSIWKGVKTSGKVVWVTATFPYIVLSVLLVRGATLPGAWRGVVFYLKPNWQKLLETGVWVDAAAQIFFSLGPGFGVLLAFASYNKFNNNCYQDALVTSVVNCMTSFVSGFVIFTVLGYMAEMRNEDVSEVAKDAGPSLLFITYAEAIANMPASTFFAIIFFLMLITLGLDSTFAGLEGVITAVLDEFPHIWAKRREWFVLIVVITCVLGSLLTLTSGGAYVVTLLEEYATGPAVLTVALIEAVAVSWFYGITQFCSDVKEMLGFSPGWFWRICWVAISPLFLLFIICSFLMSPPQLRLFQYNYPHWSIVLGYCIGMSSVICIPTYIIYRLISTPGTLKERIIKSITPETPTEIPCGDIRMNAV
Compound,inhibition at 10 µM ([1]; rat synaptosomes) [%],inhibition at 10 µM [2] [%],inhibition at 1 µM [3] [%],other results
"CN(C)CC1CCOc2ccccc2C1(O)c1cccnc1 (centres unmarked) [Example 24, 4-dimethylaminomethyl-5-pyridin-3-yl-2,3,4,5-tetrahydro-benzo[b]oxepin-5-ol]",12,9,45,
"CN(C)CC1CCSc2ccccc2C1(O)c1cccnc1 (centres unmarked) [Example 14, 4-dimethylaminomethyl-5-pyridin-3-yl-2,3,4,5-tetrahydro-benzo[b]thiepin-5-ol]",,,,"Inhibition of 5-HT reuptake (% inhibition at 10 μmol./l) ([1]; rat synaptosomes): 44%; Inhibition of NA reuptake (% inhibition at 10 μmol./l) [2]: 54%; μ-Opioid receptor affinity (% inhibition at 1 μmol./l) [3]: −14%; Inhibition of the nociceptive behaviour versus control (% inhibition) ([4]; 21.5 mg/kg i.v., phase 2, 21.5 mg/kg): −53.2%"
"CN(C)CC1=C(c2cccnc2)c2ccccc2[S+]([O-])CC1 (centres unmarked) [Example 16, dimethyl-(1-oxo-5-pyridin-3-yl-2,3-dihydro-1H-1λ4-benzo[b]thiepin-4-ylmethyl)-amine]",35,-2,,"Ki [3, 5]: 210 nM"
"COc1ccc2c(c1)CC(CN(C)C)C2(O)c1cccnc1 (centres unmarked) [Example 5, 2-dimethylaminomethyl-5-methoxy-1-pyridin-3-yl-indan-1-ol]",,29,49,"Ki [1, 6]: 170 nM; Inhibition of the nociceptive behaviour versus control (% inhibition) ([4]; 21.5 mg/kg i.v., phase 2): −43.0%"
"CN(C)CC1Cc2cc(C(F)(F)F)ccc2C1(O)c1cccnc1 (centres unmarked) [Example 22, 2-dimethylaminomethyl-1-pyridin-3-yl-5-trifluoromethyl-indan-1-ol]",61,17,2,
"CN(C)CC1CCS(=O)(=O)c2ccccc2C1(O)c1cccnc1 (centres unmarked) [Example 17, 4-dimethylaminomethyl-1,1-dioxo-5-pyridin-3-yl-2,3,4,5-tetrahydro-1H-1λ6-benzo[b]thiepin-5-ol]",57,19,-13,
"COc1cccc2c1CCC(CN(C)C)=C2c1cccnc1 [Example 38, (5-methoxy-1-pyridin-3-yl-3,4-dihydro-naphthalen-2-ylmethyl)-dimethyl-amine]",,34,,"Ki [1, 6]: 370 nM; Ki [3, 5]: 460 nM"
"CN(C)CC1Cc2cc(F)ccc2C1(O)c1cccnc1 (centres unmarked) [Example 18, 2-dimethylaminomethyl-5-fluoro-1-pyridin-3-yl-indan-1-ol]",56,29,-6,
"CN(C)CC1CCCc2ccccc2C1(O)c1cccnc1 (centres unmarked) [Example 11, 6-dimethylaminomethyl-5-pyridin-3-yl-6,7,8,9-tetrahydro-5H-benzocyclohepten-5-ol]",,39,20,Ki [1]: 28 nM
"CN(C)CC1=C(c2cccnc2)c2ccccc2CC1 [Example 9, dimethyl-(1-pyridin-3-yl-3,4-dihydro-naphthalen-2-ylmethyl)-amine]",56,26,,"Ki [3, 5]: 560 nM; Inhibition of the nociceptive behaviour versus control (% inhibition) ([4]; 10 mg/kg i.v., phase 2): −97.0%"
"CN(C)CC1=C(c2cccnc2)c2ccc(F)cc2C1 [Example 19, (6-fluoro-3-pyridin-3-yl-1H-inden-2-ylmethyl)-dimethyl-amine]",,31,,"Ki [1, 6]: 43 nM; Ki [3]: 290 nM"
"CN(C)CC1=C(c2cccnc2)c2ccc(C(F)(F)F)cc2C1 [Example 23, dimethyl-(3-pyridin-3-yl-6-trifluoromethyl-1H-inden-2-ylmethyl)-amine]",47,6,-8,
"CNCC[C@H](Oc1cccc2ccccc12)c1cccs1 [Duloxetin, duloxetin, reference compound]",,,,"μ-Opioid receptor affinity (% inhibition at 1 μmol./l) [3]: −10%; Inhibition of the nociceptive behaviour versus control, ED50 value ([4]; i.v., phase 2, regression analysis): 1.43 mg/kg"
"COc1cccc2c1CCC(CN(C)C)C2(O)c1cccnc1 (centres unmarked) [Example 37, 2-dimethylaminomethyl-5-methoxy-1-pyridin-3-yl-1,2,3,4-tetrahydro-naphthalen-1-ol]",,,,Inhibition of 5-HT reuptake (% inhibition at 10 μmol./l) ([1]; rat synaptosomes): 19%; Inhibition of NA reuptake (% inhibition at 10 μmol./l) [2]: 57%; μ-Opioid receptor affinity (% inhibition at 1 μmol./l) [3]: 8%
"COc1cccc2c1CCC(CN(C)C)C2(O)c1cccnc1 (centres unmarked) [Example 36, 2-dimethylaminomethyl-5-methoxy-1-pyridin-3-yl-1,2,3,4-tetrahydro-naphthalen-1-ol]",33,49,,μ-Opioid receptor affinity (% inhibition at 1 μmol./l) [3]: −14%
"CN(C)CC1CSc2ccccc2C1(O)c1cccnc1 (centres unmarked) [Example 31, 3-dimethylaminomethyl-4-pyridin-3-yl-thiochroman-4-ol]",-4,48,,
"CN(C)CC1Cc2cc(OC(F)(F)F)ccc2C1(O)c1cccnc1 (centres unmarked) [Example 20, 2-dimethylaminomethyl-1-pyridin-3-yl-5-trifluoromethoxy-indan-1-ol]",71,38,-19,
"CN(C)CC1=C(c2cccnc2)c2ccc(OC(F)(F)F)cc2C1 [Example 21, dimethyl-(3-pyridin-3-yl-6-trifluoromethoxy-1H-inden-2-ylmethyl)-amine]",,14,5,"Ki [1, 6]: 430 nM"
"CN(C)CC1=C(c2cccnc2)c2ccccc2OCC1 [Example 26, dimethyl-(5-pyridin-3-yl-2,3-dihydro-benzo[b]oxepin-4-ylmethyl)-amine]",50,9,37,
"CN(C)CC1CCc2ccccc2C1(O)c1cccnc1 (centres unmarked) [Example 8, 2-dimethylaminomethyl-1-pyridin-3-yl-1,2,3,4-tetrahydro-naphthalen-1-ol]",,,,"Inhibition of the nociceptive behaviour versus control (% inhibition) ([4]; 46.4 mg/kg i.v., phase 2): −65.8%"
"CN(C)CC1Cc2ccccc2C1(O)c1cccnc1 (single isomer, unassigned) [Example 1, 2-dimethylaminomethyl-1-pyridin-3-yl-indan-1-ol]",,33,,Inhibition of 5-HT reuptake (% inhibition at 10 μmol./l) ([1]; rat synaptosomes): 63%; μ-Opioid receptor affinity (% inhibition at 1 μmol./l) [3]: 1%
"CN(C)CC1=C(c2cccnc2)c2cccc(O)c2CC1 [Example 39, 6-dimethylaminomethyl-5-pyridin-3-yl-7,8-dihydro-naphthalen-1-ol]",,50,,Ki [1]: 250 nM; Ki [3]: 20 nM
